CC(C)(C)OC(=O)N[C@@H](CC(N)=O)C(=O)O
solubility (mole fraction)
Conditions | 283.15 K | 288.15 K | 293.15 K | 298.15 K | 303.15 K | 308.15 K | 313.15 K | 318.15 K | 323.15 K
in 2-butanone | 0.000534 | 0.000543 | 0.000641 | 0.000673 | 0.000804 | 0.000879 | 0.00109 | 0.00131 | 0.00171
in acetone | 0.000897 | 0.000927 | 0.0012 | 0.00139 | 0.00166 | 0.00201 | 0.00222 | 0.00253 | 0.00308
in acetonitrile | 0.000136 | 0.000177 | 0.000195 | 0.000257 | 0.000313 | 0.000398 | 0.000499 | 0.000665 | 0.000856
in ethanol | 0.00213 | 0.00253 | 0.0031 | 0.00375 | 0.00454 | 0.00533 | 0.00632 | 0.00776 | 0.0091
in isobutanol | 0.000686 | 0.000865 | 0.000918 | 0.00106 | 0.0014 | 0.0018 | 0.00236 | 0.00324 | 0.00421
in isopropanol | 0.00136 | 0.00169 | 0.00204 | 0.00252 | 0.00317 | 0.00372 | 0.00433 | 0.00528 | 0.00658
in methanol | 0.00641 | 0.0073 | 0.00842 | 0.00982 | 0.0111 | 0.013 | 0.0153 | 0.0172 | 0.022
in n-butanol | 0.000791 | 0.000839 | 0.00113 | 0.00131 | 0.00172 | 0.00189 | 0.00241 | 0.003 | 0.00377
in n-pentanol | 0.000561 | 0.000787 | 0.00102 | 0.00154 | 0.00178 | 0.00227 | 0.00266 | 0.00302 | 0.00364
in n-propanol | 0.00105 | 0.00145 | 0.00176 | 0.00195 | 0.0026 | 0.00323 | 0.00386 | 0.00498 | 0.00612
in sec-butanol | 0.00103 | 0.00143 | 0.0017 | 0.00227 | 0.00245 | 0.00299 | 0.00406 | 0.00505 | 0.00619
in water | 0.000247 | 0.000288 | 0.000359 | 0.000452 | 0.000492 | 0.000617 | 0.00076 | 0.000834 | 0.00107

— BigSolDB 2.1
